Data as given in US11702404B2, “GLP-1R modulating compounds” (priority 2019, dated 2023).

Experiments:
[1] = Microsomal stability, human liver microsomes (predicted hepatic clearance); details: predicted from in vitro microsomal stability data
GLP-1R = GLP-1R (Homo sapiens, UniProt P43220); test: GLP-1R activation: cAMP increase in CHO cells stably expressing GLP-1R; type: cell-based; details: cAMP increase, CHO cells stably expressing GLP-1R, 10 point dose response, 30 minutes incubation; read-out: EC50
Chain of GLP-1R (P43220 24-463): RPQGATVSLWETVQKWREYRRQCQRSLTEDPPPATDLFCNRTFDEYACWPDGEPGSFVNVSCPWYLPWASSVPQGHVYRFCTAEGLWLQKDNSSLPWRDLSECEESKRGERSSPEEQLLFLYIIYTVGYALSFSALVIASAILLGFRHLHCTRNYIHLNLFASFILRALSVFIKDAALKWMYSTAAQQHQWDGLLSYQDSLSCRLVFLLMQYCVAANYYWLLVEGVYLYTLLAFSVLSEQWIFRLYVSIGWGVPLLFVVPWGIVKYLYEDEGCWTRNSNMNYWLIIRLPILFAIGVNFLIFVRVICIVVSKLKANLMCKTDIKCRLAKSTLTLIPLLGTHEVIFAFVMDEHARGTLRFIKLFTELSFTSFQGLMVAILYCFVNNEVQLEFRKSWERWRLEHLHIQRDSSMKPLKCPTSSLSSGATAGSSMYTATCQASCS

| Structure (SMILES) | Predicted Hepatic Clearance (Pred. Cl.) [1] [mL/min/kg] | EC50 (GLP-1R) [nM] |
| --- | --- | --- |
| COCCn1c(Cc2ccc(-c3cccc(OCc4ccc(C#N)cc4F)n3)cc2O)nc2ccc(C(=O)O)cc21 [Example 181, 2-(4-(6-((4-cyano-2-fluorobenzyl)oxy)pyridin-2-yl)-2-hydroxybenzyl)-1-(2-methoxyethyl)-1H-benzo[d]imidazole-6-carboxylic acid] | 2.83 | 15.5 |
| CC1(Cn2c(Cc3ccc(-c4cccc(OCc5ccc(C#N)cc5F)n4)cc3F)nc3ccc(C(=O)O)cc32)CCC1 [Example 384, 2-(4-(6-((4-cyano-2-fluorobenzyl)oxy)pyridin-2-yl)-2-fluorobenzyl)-1-((1-methylcyclobutyl)methyl)-1H-benzo[d]imidazole-6-carboxylic acid] | <1.83 | 1.45 |
| COCCn1c(Cc2ccc(-c3cccc(OCc4ccc(C#N)cc4F)n3)cc2F)nc2cccc(C(=O)O)c21 [Example 201, 2-(4-(6-((4-cyano-2-fluorobenzyl)oxy)pyridin-2-yl)-2-fluorobenzyl)-1-(2-methoxyethyl)-1H-benzo[d]imidazole-7-carboxylic acid] | 3 | 4420 |
| COCCn1c(Cc2cc(F)c(-c3cccc(OCc4ccc(CC#N)cc4)n3)cc2F)nc2ccc(C(=O)O)cc21 [Example 817] | 9 | 10.3 |
| O=C(O)c1cc(F)c2nc(Cc3ccc(-c4ccc(F)c(OCc5ccc(C(F)F)cc5F)n4)cc3F)n(CC34CC(CO3)C4)c2c1 [Example 770] | 1.83 | 2.62 |
| N#Cc1ccc(COc2cccc(-c3ccc(Cc4nc5ccc(C(=O)O)cc5n4C4CC4)c(F)c3)n2)c(F)c1 [Example 356, 2-(4-(6-((4-cyano-2-fluorobenzyl)oxy)pyridin-2-yl)-2-fluorobenzyl)-1-cyclopropyl-1H-benzo[d]imidazole-6-carboxylic acid] | 7.17 | 48.7 |
| CO[C@H]1C[C@H](n2c(Cc3cc(F)c(-c4cccc(OCc5ccc(C#N)cc5F)n4)cc3F)nc3ccc(C(=O)O)cc32)C1 [Example 567, 2-(4-(6-((4-cyano-2-fluorobenzyl)oxy)pyridin-2-yl)-2,5-difluorobenzyl)-1-((1r,3r)-3-methoxycyclobutyl)-1H-benzo[d]imidazole-6-carboxylic acid] | 7.67 | 1130 |
| N#Cc1ccc(COc2cccc(-c3cc(F)c(Cc4nc5ccc(C(=O)O)cc5n4CC45CC(CCO4)C5)cc3F)n2)c(F)c1 [Example 623] | 10.7 | 4.04 |
| COCCn1c(Cc2cc(F)c(-c3cccc(OCc4csc(Cl)c4)n3)cc2F)nc2ccc(C(=O)O)cc21 [Example 692] | 1.83 | 12.3 |
| COC1(Cn2c(Cc3cc(F)c(-c4cccc(OCc5ccc(C#N)cc5F)n4)cc3F)nc3ccc(C(=O)O)cc32)CN(C(C)=O)C1 [Example 687] | 8.67 | 181 |
| O=C(O)c1ccc2nc(Cc3cc(F)c(-c4cccc(OCc5ccc(C(F)F)cc5F)n4)cc3F)n(Cc3ccon3)c2c1 [Example 609] | 1.83 | 0.15 |
